In brackets after ≈: the same amount, converted by molar mass.
Assays:
[1] = Single oral dose pharmacokinetics of BKIs in mice (plasma); assay type: in vivo; details: mouse plasma
Protocol: Mouse oral PK studies were performed as previously described. Briefly, three female BALB/c mice (10 -12 weeks old) were used in each group. With the exception of 1556, each group of mice received an individual BKI at a dose of 10 mg/kg body weight by oral gavage in 200 μL 70% Tween 80/30% ethanol diluted in saline. The only difference for mice administered 1556 was that the group received a dose of 25 mg/kg. Blood samples were taken by tail bleeding into heparinized tubes at designated time points and centrifuged to obtain plasma. The samples were frozen at -20°C. The plasma samples were prepared by adding acetonitrile + 0.1% formic acid with an internal standard. Calibration curves were generated by spiking standards of each BKI into mouse serum and preparing the standards along with test samples. The PK calculations of Cmax and AUC were performed using Phoenix WinNonlin software (Certara, Princeton, NJ).

Plasma protein binding = assay type: in vitro ADME
From the text: (§1) Information regarding the C. parvum oocysts, generation of BKIs, CpCDPK1 enzyme inhibition, C. parvum growth inhibition by BKIs, plasma protein binding, and neonatal mouse model of C. parvum infection has been described in detail elsewhere. Information on BKI solubility and permeability, Gastroplus modeling, the interferon (IFN) γ knockout (KO) mouse model, and measurement of BKI levels in the GI tract of mice is described in the Supplementary Material. All animal experiments were approved by the Institutional Animal Care and Use Committees at the participating universities (University of Washington, University of Georgia, and University of Arizona).

Cryptosporidium parvum [2] = assay: C. parvum growth inhibition by BKIs in vitro; assay type: cell-based; details: read-out: BKI EC50 for Inhibition of C. parvum Proliferation
From the text: as §1

Cryptosporidium parvum [3] = assay: Neonatal mouse model of C. parvum infection; assay type: in vivo; design: concentration or dose not given beside the values
From the text: as §1

[4] = BKI aqueous solubility at pH 2 and 6.5; assay type: physicochemical; details: second of two values; measured at pH 2 and 6.5
Protocol: Briefly, 1 μL of 20 mM dimethyl sulfoxide (DMSO) stock was added to 199 μL of buffer. Samples were vortexed and allowed to incubate at 25 °C overnight. The next day, each sample was centrifuged at 13800 rpm for 40 minutes at 25 °C. The supernatant was collected and 100 μL of the supernatant was added to 100 μL acetonitrile. Solutions were analyzed by HPLC/UV and were quantified based on a five-point calibration curve for each analyte.

Cryptosporidium parvum [5] = assay: IFN-γ KO adult mouse model of C. parvum infection (Nluc oocyst shedding); assay type: in vivo; details: IFN-γ KO mice, 6 mg/kg once daily oral for 5 days
From the text: The ability to predict in vivo efficacy with BKI ascending colon concentrations was further evaluated in an adult model of C. parvum infection. Female IFN-γ KO mice were infected with transgenic C. parvum strain UGA1 expressing nanoluciferase (Nluc), and the infection was allowed to proceed for 3–5 days. […] To account for daily growth of parasites over the course of the study, the observed RLUs in the vehicle-treated mice were used to simulate the growth of the parasite over the course of the experiment (Figure 4A). On each day of the study, the simulated parasite level was based on both the growth of the parasite and the predicted inhibition by BKI [[22–24]].
The efficacy of BKIs in an adult mouse model of C. parvum infection was tested as previously described. Briefly, all female IFN-γ KO mice (B6.129S7-Ifngtm1Ts/J, Jackson Laboratories), were infected by oral gavage (PO) with 10,000 Nluc expressing C. parvum oocysts in 100 μL DPBS for studies with 1534. For all other studies, mice were infected PO with 1,000 Nlucexpressing C. parvum oocysts. Vehicle control groups and BKI treated groups each contained at least three mice. […] The stool samples were checked for luminescence on the day of collection and RLU readings were standardized to fecal sample weights. […]

Cryptosporidium = system: Cryptosporidium; design: method as in PMID 12423984; details: cited from earlier work

Structure (SMILES)	AUC ([1]; single oral dose 10 mg/kg)	Cmax ([1]; single oral dose 10 mg/kg)	Plasma Protein Binding (Plasma protein binding)	EC50 (Cryptosporidium parvum [2])	Solubility (second value) [4]	AUC ([1]; single oral dose 25 mg/kg)	Cmax ([1]; single oral dose 25 mg/kg)	Reduction in Neonatal Mouse C. parvum Infection (Cryptosporidium parvum [3])	in vivo efficacy (oocyst shedding, RLU) (Cryptosporidium parvum [5])	efficacy (Cryptosporidium; human immunodeficiency virus–infected individuals)	response rate (Cryptosporidium; malnourished children with cryptosporidiosis)
CCOc1ccc2cc(-c3nn(CC4CCNCC4)c4ncnc(N)c34)ccc2n1 [BKI 1318]	2208 µmol·min/L	6500 nM	55%	3.2 µM				65%			
CCOc1ccc2cc(-c3nn(CC4CCN(C)CC4)c4ncnc(N)c34)ccc2c1 [BKI 1294]	430 µmol·min/L	800 nM	84%	2.7 µM				56%			
CC(C)Cn1nc(-c2ccc3cc(OC4CC4)ccc3c2)c2c(N)ncnc21 [BKI 1534]	58 µmol·min/L	200 nM	99%	2.2 µM	2 µM (≈ 0.747 µg/mL)			61%	lack of BKI efficacy		
CC(=O)Oc1ccccc1C(=O)Nc1ncc([N+](=O)[O-])s1 [nitazoxanide]										no efficacy	30%

Now from value to compound, other results behind:

AUC ([1]; single oral dose 10 mg/kg)	Cmax ([1]; single oral dose 10 mg/kg)	Plasma Protein Binding (Plasma protein binding)	EC50 (Cryptosporidium parvum [2])	Solubility (second value) [4]	AUC ([1]; single oral dose 25 mg/kg)	Cmax ([1]; single oral dose 25 mg/kg)	Structure (SMILES)	Reduction in Neonatal Mouse C. parvum Infection (Cryptosporidium parvum [3])	in vivo efficacy (oocyst shedding, RLU) (Cryptosporidium parvum [5])	efficacy (Cryptosporidium; human immunodeficiency virus–infected individuals)	response rate (Cryptosporidium; malnourished children with cryptosporidiosis)
	300 nM	37%	2.3 µM				CCOc1ccc2cc(-c3nn(CC4CCN(C)CC4)c4ncnc(N)c34)ccc2n1 [BKI 1369]	70%			
67 µmol·min/L	900 nM	84%	5.5 µM	17 µM (≈ 7.08 µg/mL)			Nc1ncnc2c1c(-c1ccc3nc(OC4CC4)ccc3c1)nn2CC1CCOCC1 [BKI 1557]	33%			
6416 µmol·min/L	4900 nM	90%	2.3 µM	83 µM (≈ 32.3 µg/mL)			CC(C)(O)Cn1cc(-c2ccc3nc(OC4CC4)ccc3c2)c2c(N)ncnc21 [BKI 1649]	56%			
		86%	3.2 µM	7 µM (≈ 2.62 µg/mL)	2082 µmol·min/L	7000 nM	CC(C)Cn1nc(-c2ccc3nc(OC4CC4)ccc3c2)c2c(N)ncnc21 [BKI 1556]	61%			

Reference: article PMC5853285, “Necessity of Bumped Kinase Inhibitor Gastrointestinal Exposure in Treating Cryptosporidium Infection” (The Journal of Infectious Diseases, 2017)
